Data on seven compounds can be found in PMC6199744, “Development of Chemical Proteomics for the Folateome and Analysis of the Kinetoplastid Folateome” (ACS Infectious Diseases, 2018).

Holding throughout (format): binding
Assay [1] deals with T1, HeLa cell extract proteins (Homo sapiens, UniProt Q86X55).
T1 construct: endogenous in cells; host or cells: HeLa cell extract
T1 sequence (Q86X55 1-608): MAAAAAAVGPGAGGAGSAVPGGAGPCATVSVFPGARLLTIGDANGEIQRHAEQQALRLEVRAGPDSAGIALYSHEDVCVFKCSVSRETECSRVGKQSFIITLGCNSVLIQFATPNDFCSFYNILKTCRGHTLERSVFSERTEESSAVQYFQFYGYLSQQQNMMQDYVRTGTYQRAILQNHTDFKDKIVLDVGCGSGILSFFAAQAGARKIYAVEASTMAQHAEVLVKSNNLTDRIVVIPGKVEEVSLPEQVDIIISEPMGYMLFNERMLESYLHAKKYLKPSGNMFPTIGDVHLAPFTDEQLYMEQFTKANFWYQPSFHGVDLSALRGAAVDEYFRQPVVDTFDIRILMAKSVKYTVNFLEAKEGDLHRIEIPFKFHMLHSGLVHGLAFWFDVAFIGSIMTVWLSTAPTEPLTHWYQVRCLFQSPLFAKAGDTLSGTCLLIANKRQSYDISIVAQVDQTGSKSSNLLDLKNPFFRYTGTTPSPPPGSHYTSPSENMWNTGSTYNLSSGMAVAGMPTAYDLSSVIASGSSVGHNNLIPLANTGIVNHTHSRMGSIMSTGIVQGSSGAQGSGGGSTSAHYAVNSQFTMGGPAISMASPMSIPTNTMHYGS

In assay [2] the target is T2, HeLa cell extract proteins (Homo sapiens, UniProt P51398).
T2 construct: endogenous in cells; host or cells: HeLa cell extract

For assay [3], the target named is T3, HeLa cell extract proteins (Homo sapiens, UniProt Q01650).
T3 construct: endogenous in cells; host or cells: HeLa cell extract
T3 sequence (Q01650 whole entry): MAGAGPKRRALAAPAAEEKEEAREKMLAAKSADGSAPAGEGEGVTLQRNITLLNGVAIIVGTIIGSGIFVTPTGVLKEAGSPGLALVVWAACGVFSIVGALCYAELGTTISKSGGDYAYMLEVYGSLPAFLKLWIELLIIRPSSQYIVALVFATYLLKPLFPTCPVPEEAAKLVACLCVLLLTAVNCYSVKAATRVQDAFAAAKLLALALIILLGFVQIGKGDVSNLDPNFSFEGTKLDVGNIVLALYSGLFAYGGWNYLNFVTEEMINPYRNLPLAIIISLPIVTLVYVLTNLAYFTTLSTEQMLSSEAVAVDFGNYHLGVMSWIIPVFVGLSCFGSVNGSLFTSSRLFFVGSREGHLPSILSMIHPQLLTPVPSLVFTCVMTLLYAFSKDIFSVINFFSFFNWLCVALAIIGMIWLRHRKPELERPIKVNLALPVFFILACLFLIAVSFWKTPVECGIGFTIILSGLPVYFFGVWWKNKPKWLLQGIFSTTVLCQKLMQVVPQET

Assay [4] concerns the target T4, HeLa cell extract proteins (Homo sapiens, UniProt Q9UNK9).
T4 construct: endogenous in cells; host or cells: HeLa cell extract
T4 sequence (Q9UNK9 1-670): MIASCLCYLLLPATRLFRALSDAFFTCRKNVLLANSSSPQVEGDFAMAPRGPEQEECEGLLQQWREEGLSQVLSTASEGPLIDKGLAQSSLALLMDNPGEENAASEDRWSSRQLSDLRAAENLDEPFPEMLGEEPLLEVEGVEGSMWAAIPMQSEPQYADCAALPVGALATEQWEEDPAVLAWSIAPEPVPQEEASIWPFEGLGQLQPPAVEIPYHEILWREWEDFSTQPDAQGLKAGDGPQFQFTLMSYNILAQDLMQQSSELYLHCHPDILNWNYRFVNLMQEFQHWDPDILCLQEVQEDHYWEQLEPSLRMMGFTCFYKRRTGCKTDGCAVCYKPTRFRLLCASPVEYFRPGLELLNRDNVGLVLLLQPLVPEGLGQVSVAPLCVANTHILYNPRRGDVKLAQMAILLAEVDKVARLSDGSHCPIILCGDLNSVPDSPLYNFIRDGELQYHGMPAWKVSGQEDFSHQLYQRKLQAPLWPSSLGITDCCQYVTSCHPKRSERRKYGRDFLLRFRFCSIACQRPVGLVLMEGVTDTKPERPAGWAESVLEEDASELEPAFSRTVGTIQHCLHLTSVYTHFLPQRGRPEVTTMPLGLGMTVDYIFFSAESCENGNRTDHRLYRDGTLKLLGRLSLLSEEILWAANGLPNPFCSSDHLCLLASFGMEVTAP

Assay [5] addresses T5, HeLa cell extract proteins (Homo sapiens, UniProt Q5R3I4).
T5 construct: endogenous in cells; host or cells: HeLa cell extract

For assay [6], the target named is T6, HeLa cell extract proteins (Homo sapiens, UniProt P24863).
T6 construct: endogenous in cells; host or cells: HeLa cell extract
T6 sequence (P24863 1-283): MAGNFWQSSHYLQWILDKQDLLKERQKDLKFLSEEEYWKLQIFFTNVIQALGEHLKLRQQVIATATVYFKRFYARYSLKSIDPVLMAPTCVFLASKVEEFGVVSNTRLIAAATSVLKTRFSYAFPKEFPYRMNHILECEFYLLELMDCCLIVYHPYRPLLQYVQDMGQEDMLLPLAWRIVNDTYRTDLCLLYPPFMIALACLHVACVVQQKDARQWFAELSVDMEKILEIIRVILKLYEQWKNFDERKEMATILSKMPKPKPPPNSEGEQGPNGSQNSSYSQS

The target of assay [7] is T7, HeLa cell extract proteins (Homo sapiens, UniProt Q6PJT7).
T7 construct: endogenous in cells; host or cells: HeLa cell extract
T7 sequence (Q6PJT7 1-736): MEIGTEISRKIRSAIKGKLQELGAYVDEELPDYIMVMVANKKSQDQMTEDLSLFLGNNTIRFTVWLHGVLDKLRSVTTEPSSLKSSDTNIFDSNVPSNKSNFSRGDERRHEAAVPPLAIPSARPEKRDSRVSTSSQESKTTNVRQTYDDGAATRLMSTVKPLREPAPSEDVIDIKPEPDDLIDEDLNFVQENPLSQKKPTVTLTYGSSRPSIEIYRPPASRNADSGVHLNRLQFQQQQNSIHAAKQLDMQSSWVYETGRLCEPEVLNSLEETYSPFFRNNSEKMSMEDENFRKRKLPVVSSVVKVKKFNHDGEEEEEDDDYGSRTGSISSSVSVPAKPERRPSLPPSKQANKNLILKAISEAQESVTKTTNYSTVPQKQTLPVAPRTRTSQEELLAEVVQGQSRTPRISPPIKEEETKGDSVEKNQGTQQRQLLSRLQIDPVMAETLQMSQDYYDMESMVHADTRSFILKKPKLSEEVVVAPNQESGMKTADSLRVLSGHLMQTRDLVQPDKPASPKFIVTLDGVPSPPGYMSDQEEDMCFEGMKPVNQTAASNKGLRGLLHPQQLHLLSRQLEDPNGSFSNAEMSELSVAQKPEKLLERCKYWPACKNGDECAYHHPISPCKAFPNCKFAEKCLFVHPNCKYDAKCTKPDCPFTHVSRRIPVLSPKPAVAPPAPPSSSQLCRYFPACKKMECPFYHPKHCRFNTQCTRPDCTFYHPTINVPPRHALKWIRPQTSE

Assay [8] addresses T8, HeLa cell extract proteins (Homo sapiens, UniProt P51149).
T8 construct: endogenous in cells; host or cells: HeLa cell extract

In assay [9] the target is T9, HeLa cell extract proteins (Homo sapiens, UniProt P11940).
T9 construct: endogenous in cells; host or cells: HeLa cell extract
T9 sequence (P11940 whole entry): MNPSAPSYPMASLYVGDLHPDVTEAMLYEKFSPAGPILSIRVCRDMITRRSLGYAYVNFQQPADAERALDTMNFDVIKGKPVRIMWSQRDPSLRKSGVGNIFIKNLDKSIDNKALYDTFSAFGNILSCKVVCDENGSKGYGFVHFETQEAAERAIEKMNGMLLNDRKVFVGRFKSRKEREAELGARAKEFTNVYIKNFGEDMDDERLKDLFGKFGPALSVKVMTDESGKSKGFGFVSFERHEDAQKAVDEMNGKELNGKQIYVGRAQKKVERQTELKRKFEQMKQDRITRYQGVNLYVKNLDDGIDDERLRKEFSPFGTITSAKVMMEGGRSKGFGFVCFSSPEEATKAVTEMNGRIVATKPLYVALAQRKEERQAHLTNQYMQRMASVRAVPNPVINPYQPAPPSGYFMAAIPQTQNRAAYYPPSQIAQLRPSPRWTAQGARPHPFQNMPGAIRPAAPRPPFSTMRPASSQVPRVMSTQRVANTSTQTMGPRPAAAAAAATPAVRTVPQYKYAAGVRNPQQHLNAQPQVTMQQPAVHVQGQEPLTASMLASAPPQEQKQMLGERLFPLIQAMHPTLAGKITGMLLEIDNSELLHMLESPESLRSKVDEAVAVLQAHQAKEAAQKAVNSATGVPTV

[10] abbreviates: HeLa, protein TTC38 (HYPOTHETICAL PROTEIN LOC55020).

Read-outs that look alike come from different tables or passages of the source.

T8 sequence (P51149 whole entry): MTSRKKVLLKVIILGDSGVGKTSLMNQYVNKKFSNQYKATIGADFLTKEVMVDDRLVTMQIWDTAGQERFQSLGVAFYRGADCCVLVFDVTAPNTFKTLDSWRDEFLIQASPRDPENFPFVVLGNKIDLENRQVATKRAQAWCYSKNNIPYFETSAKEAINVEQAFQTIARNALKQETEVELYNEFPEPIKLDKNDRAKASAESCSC
T5 sequence (Q5R3I4 whole entry): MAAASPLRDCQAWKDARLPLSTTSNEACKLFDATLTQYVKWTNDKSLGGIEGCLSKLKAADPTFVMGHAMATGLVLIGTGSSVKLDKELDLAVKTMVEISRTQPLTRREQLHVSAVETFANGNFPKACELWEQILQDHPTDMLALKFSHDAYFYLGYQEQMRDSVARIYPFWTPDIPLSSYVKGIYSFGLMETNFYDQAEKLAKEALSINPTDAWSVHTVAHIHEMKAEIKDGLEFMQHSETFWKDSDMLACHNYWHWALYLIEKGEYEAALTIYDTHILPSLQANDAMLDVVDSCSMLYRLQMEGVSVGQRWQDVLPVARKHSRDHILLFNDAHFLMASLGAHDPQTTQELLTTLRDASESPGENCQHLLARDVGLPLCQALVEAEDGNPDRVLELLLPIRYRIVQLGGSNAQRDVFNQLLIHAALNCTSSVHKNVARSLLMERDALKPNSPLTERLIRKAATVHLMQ

In the case of `CCCCCCOc1cccc(Cc2cnc(N)nc2N)c1` [compound 2], the “fold changes relative to vehicle control” value is given as 0.98 in assay [1] (HeLa, protein CARM1); 1.16 in assay [2] (protein DAP3, HeLa); 1.01 in [3] (HeLa, protein SLC7A5); 0.94 in [4] (captured protein ANGEL1, HeLa); 0.68 in assay [5] (HeLa, protein TTC38); 0.9 in assay [6] (captured protein CCNC, HeLa). Besides, the “fold changes relative to vehicle control” value in [7] (captured protein ZC3H14, HeLa) is given as 0.94; in [8] (protein RAB7A, HeLa), 1.58; in [9] (HeLa, protein PABPC1), 1.19.
`NCCOCCOCC(=O)Nc1nc2ncc(CNc3ccc(C(=O)NC(CCC(=O)O)C(=O)O)cc3)nc2c(=O)[nH]1` (stereo not drawn) [compound 6]: the “fold changes relative to vehicle control” value in assay [1] (HeLa, protein CARM1) amounted to 0.89; in assay [2] (HeLa, captured protein DAP3), 0.84; in assay [3] (HeLa, captured protein SLC7A5), 0.76; in assay [4] (protein ANGEL1, HeLa), 1.02; in [5] (setting [10]), 0.89; in assay [6] (HeLa, protein CCNC), 0.94. The “fold changes relative to vehicle control” value in assay [7] (HeLa, captured protein ZC3H14) was found to be 0.99; in assay [8] (protein RAB7A, HeLa), 1.31; in [9] (HeLa, protein PABPC1) it was 0.97.
Consider `CCCCCCOc1ccc(Cc2cnc(N)nc2N)cc1` [compound 1], for which the “fold changes relative to vehicle control” value came out at 1.02 in assay [1] (HeLa, protein CARM1); 1.27 in assay [2] (protein DAP3, HeLa); 0.97 in assay [3] (HeLa, protein SLC7A5); 1.04 in assay [4] (captured protein ANGEL1, HeLa); 1 in assay [5] (HeLa, protein TTC38); 0.89 in assay [6] (captured protein CCNC, HeLa). Moreover, the “fold changes relative to vehicle control” value in assay [7] (captured protein ZC3H14, HeLa) is listed as 0.83; in assay [8] (protein RAB7A, HeLa), 1.21; in assay [9] (HeLa, protein PABPC1) it was 0.97.
On to `Nc1nc2c(c(=O)[nH]1)N(C=O)C(CNc1ccc(C(=O)N[C@@H](CCC(=O)O)C(=O)O)cc1)CN2` (stereo partly drawn) [LEU, leucovorin], for which the “fold changes relative to vehicle control” value in [1] (HeLa, protein CARM1) is reported as 0.95; in assay [2] (HeLa, captured protein DAP3), 0.98; in [3] (HeLa, captured protein SLC7A5), 1.02; in assay [4] (protein ANGEL1, HeLa), 0.84; in assay [5] (HeLa, protein TTC38 (HY[…] LOC55020)), 1.03; in assay [6] (HeLa, protein CCNC), 1.13. Besides, the “fold changes relative to vehicle control” value is 1 in assay [7] (HeLa, captured protein ZC3H14); 0.99 in [8] (protein RAB7A, HeLa); 0.98 in assay [9] (HeLa, protein PABPC1).
Take `NCCCNc1ccc(C(=O)NC(CCC(=O)O)C(=O)O)cc1` (stereo not drawn) [compound 7]: the “fold changes relative to vehicle control” value in assay [1] (HeLa, protein CARM1) came out at 1; in [2] (HeLa, captured protein DAP3), 0.94; in assay [3] (HeLa, captured protein SLC7A5), 0.97; in [4] (protein ANGEL1, HeLa), 1; in assay [5] (setting [10]) it was 0.99; in assay [6] (HeLa, protein CCNC), 0.95. Moreover, the “fold changes relative to vehicle control” value in assay [7] (HeLa, captured protein ZC3H14) was found to be 1.04; in [8] (protein RAB7A, HeLa), 1.05; in [9] (HeLa, protein PABPC1), 1.05.
On to `Nc1nc2[nH]cc(CCc3ccc(C(=O)N[C@@H](CCC(=O)O)C(=O)O)cc3)c2c(=O)[nH]1` [PTX, pemetrexed], for which the “fold changes relative to vehicle control” value in assay [1] is listed as 0.9; in assay [2], 0.9; in [3], 0.8; in assay [4], 0.94; in assay [5], 0.93; in [6], 0.83. In addition, the “fold changes relative to vehicle control” value came to 0.95 in assay [7], 1.12 in assay [8] and 0.96 in [9].
On to `Nc1nc2cccc(-c3ccccc3)c2n1Cc1ccc(Cl)c(Cl)c1` [compound 3], for which the “fold changes relative to vehicle control” value in [1] (HeLa, protein CARM1) turned out to be 0.95; in assay [2] (protein DAP3, HeLa) it was 1; in assay [3] (HeLa, protein SLC7A5) it was 1.06; in [4] (captured protein ANGEL1, HeLa), 0.95; in [5] (HeLa, protein TTC38) it was 1; in [6] (captured protein CCNC, HeLa), 0.93. Besides, the “fold changes relative to vehicle control” value turned out to be 0.96 in [7] (captured protein ZC3H14, HeLa); 1.12 in assay [8] (protein RAB7A, HeLa); 0.94 in assay [9] (HeLa, protein PABPC1).
